From patent publication US20240287076A1, “COMPOUNDS FOR TARGETING DEGRADATION OF BRUTON'S TYROSINE KINASE” (BIOGEN MA INC., priority 2021, published 2024)

What follows are compounds tested against T1, BTK (Homo sapiens, UniProt Q06187) (assay: BTK degradation assay using the HiBiT Method (Nano-Glo HiBiT Lytic Assay, GM01501.3 cells)). Conditions: HiBiT Degradation on GM01501.3 BTK @ 6 hours.
T1 construct: The GM01501.3 cell line endogenously expresses BTK with a HiBiT fusion tag via CRISPR knock-in at its C-terminal region; endogenous in cells; host or cells: GM01501.3 (GM01501 cells engineered by CRISPR knock-in of HiBiT at the BTK locus)
T1 sequence (Q06187 whole entry, the tested form may be a part): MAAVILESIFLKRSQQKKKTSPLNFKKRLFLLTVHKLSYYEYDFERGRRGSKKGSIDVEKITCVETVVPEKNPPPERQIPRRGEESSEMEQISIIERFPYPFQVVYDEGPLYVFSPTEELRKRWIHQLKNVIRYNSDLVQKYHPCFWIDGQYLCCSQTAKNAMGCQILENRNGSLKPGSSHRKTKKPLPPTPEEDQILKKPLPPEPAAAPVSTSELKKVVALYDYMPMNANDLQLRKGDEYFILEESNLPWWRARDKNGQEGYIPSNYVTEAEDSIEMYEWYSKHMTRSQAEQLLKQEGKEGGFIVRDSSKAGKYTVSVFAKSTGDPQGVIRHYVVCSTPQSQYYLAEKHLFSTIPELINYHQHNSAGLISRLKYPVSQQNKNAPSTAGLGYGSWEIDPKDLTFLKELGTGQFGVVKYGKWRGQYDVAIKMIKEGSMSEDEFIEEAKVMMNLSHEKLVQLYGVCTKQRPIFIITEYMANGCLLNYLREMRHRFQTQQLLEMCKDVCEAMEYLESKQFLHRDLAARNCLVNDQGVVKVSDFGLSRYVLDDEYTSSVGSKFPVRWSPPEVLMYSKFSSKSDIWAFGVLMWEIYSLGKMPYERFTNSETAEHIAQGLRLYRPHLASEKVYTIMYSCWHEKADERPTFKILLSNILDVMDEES
Assay type: cell-based
Summary of the method: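 CRISPR knock-in GM01501.3 cells expressing endogenous BTK with C-terminal HiBiT tag, treated 6 h at 37 °C with compounds, 11-point half-log titration from 10 μM top, duplicates. Remaining BTK quantified by Nano-Glo HiBiT lytic luminescence versus DMSO controls; DC50 reported.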

Q: How did the DC50 turn out when `CC(C)(C)c1nc(C(=O)NCc2ccc(-c3ncnn4cc(-c5ccc(CN6CC[C@@H](c7ccc(NC8CCC(=O)NC8=O)cc7)CC67CC7)cc5)cc34)cc2F)no1` (stereo partly drawn) [Example 38, 5-tert-butyl-N-[[4-[6-[4-[[(7R)-7-[4-[(2,6-dioxo-3-piperidyl)amino]phenyl]-4-azaspiro[2.5]octan-4-yl]methyl]phenyl]pyrrolo[2,1-f][1,2,4]triazin-4-yl]-2-fluoro-phenyl]methyl]-1,2,4-oxadiazole-3-carboxamide] was run?
A: < 100 nM

Q: With `CC(C)(C)c1nc(C(=O)NCc2ccc(-c3ncnn4cc(-c5ccc(CN6CC[C@H](c7ccc(NC8CCC(=O)NC8=O)cc7)CC67CC7)cc5)cc34)cc2F)no1` (stereo partly drawn) [Example 39, 5-tert-butyl-N-[[4-[6-[4-[[(7S)-7-[4-[(2,6-dioxo-3-piperidyl)amino]phenyl]-4-azaspiro[2.5]octan-4-yl]methyl]phenyl]pyrrolo[2,1-f][1,2,4]triazin-4-yl]-2-fluoro-phenyl]methyl]-1,2,4-oxadiazole-3-carboxamide] as the compound, how does the DC50 read?
A: 100 to 500 nM

Q: For `CC(C)(C)c1nc(C(=O)NCc2ccc(-c3ncnn4cc(-c5ccc(CN6CCC(c7ccc(C8CCC(=O)NC8=O)cc7)CC6)cc5)cc34)cc2)no1` (centres unmarked) [Example 40, 5-tert-butyl-N-[[4-[6-[4-[[4-[4-(2,6-dioxo-3-piperidyl)phenyl]-1-piperidyl]methyl]phenyl]pyrrolo[2,1-f][1,2,4]triazin-4-yl]phenyl]methyl]-1,2,4-oxadiazole-3-carboxamide], which DC50 is on record?
A: < 100 nM

Q: How did the DC50 turn out when `CC(C)(C)c1nc(C(=O)NCc2ccc(-c3ncnn4cc(-c5ccc(CN6CCC(c7ccc(NC8CCC(=O)NC8=O)cc7)CC6)cc5)cc34)cc2)no1` (centres unmarked) [Example 41, 5-tert-butyl-N-[[4-[6-[4-[[4-[4-[(2,6-dioxo-3-piperidyl)amino]phenyl]-1-piperidyl]methyl]phenyl]pyrrolo[2,1-f][1,2,4]triazin-4-yl]phenyl]methyl]-1,2,4-oxadiazole-3-carboxamide] was run?
A: < 100 nM

Q: For `CC(C)(C)c1nc(C(=O)NCc2ccc(-c3ncnn4cc(-c5ccc(CN6CCC(c7ccc(C8CCC(=O)NC8=O)cc7)CC6)cc5)cc34)cc2F)no1` (centres unmarked) [Example 42, 5-tert-butyl-N-[[4-[6-[4-[[4-[4-(2,6-dioxo-3-piperidyl)phenyl]-1-piperidyl]methyl]phenyl]pyrrolo[2,1-f][1,2,4]triazin-4-yl]-2-fluoro-phenyl]methyl]-1,2,4-oxadiazole-3-carboxamide], which DC50 is on record?
A: < 100 nM

Q: Which DC50 does the source give for `COc1cc(-c2ncnn3cc(-c4ccc(CN5CCC(c6ccc(C7CCC(=O)NC7=O)cc6)CC5)cc4)cc23)ccc1CNC(=O)c1noc(C(C)(C)C)n1` (centres unmarked) [Example 43, 5-tert-butyl-N-[[4-[6-[4-[[4-[4-(2,6-dioxo-3-piperidyl)phenyl]-1-piperidyl]methyl]phenyl]pyrrolo[2,1-f][1,2,4]triazin-4-yl]-2-methoxy-phenyl]methyl]-1,2,4-oxadiazole-3-carboxamide] here?
A: < 100 nM

Q: Which DC50 does the source give for `CC(C)(C)c1nc(C(=O)NCc2ccc(-c3ncnn4cc(-c5ccc(CN6CCC(c7ccc(NC8CCC(=O)NC8=O)cc7)CC6)cc5)cc34)cc2F)no1` (centres unmarked) [Example 44, 5-tert-butyl-N-[[4-[6-[4-[[4-[4-[(2,6-dioxo-3-piperidyl)amino]phenyl]-1-piperidyl]methyl]phenyl]pyrrolo[2,1-f][1,2,4]triazin-4-yl]-2-fluoro-phenyl]methyl]-1,2,4-oxadiazole-3-carboxamide] here?
A: < 100 nM

Q: Which DC50 does the source give for `CC(C)(C)c1nc(C(=O)NCc2ccc(-c3ncnn4cc(-c5ccc(CN6CCC(c7ccc(NC8CCC(=O)NC8=O)cn7)CC6)cc5)cc34)cc2F)no1` (centres unmarked) [Example 45, 5-tert-butyl-N-[[4-[6-[4-[[4-[5-[(2,6-dioxo-3-piperidyl)amino]-2-pyridyl]-1-piperidyl]methyl]phenyl]pyrrolo[2,1-f][1,2,4]triazin-4-yl]-2-fluoro-phenyl]methyl]-1,2,4-oxadiazole-3-carboxamide] here?
A: < 100 nM

Q: For `CC(C)(C)c1nc(C(=O)NCc2ccc(-c3ncnn4cc(-c5ccc(CN6CCC(c7ccc(C8CCC(=O)NC8=O)cc7)CC6)cc5)cc34)cc2Cl)no1` (centres unmarked) [Example 46, 5-tert-butyl-N-[[2-chloro-4-[6-[4-[[4-[4-(2,6-dioxo-3-piperidyl)phenyl]-1-piperidyl]methyl]phenyl]pyrrolo[2,1-f][1,2,4]triazin-4-yl]phenyl]methyl]-1,2,4-oxadiazole-3-carboxamide], which DC50 is on record?
A: < 100 nM

Q: For `COc1cc(-c2ncnn3cc(-c4ccc(CN5CCC(c6ccc(NC7CCC(=O)NC7=O)cc6)CC5)cc4)cc23)ccc1CNC(=O)c1noc(C(C)(C)C)n1` (centres unmarked) [Example 47, 5-tert-butyl-N-[[4-[6-[4-[[4-[4-[(2,6-dioxo-3-piperidyl)amino]phenyl]-1-piperidyl]methyl]phenyl]pyrrolo[2,1-f][1,2,4]triazin-4-yl]-2-methoxy-phenyl]methyl]-1,2,4-oxadiazole-3-carboxamide], which DC50 is on record?
A: < 100 nM

Q: `CC(C)(C)c1nc(C(=O)NCc2ccc(-c3ncnn4cc(-c5ccc(CN6CCC(c7ccc(NC8CCC(=O)NC8=O)cc7)CC6)cc5)cc34)cc2Cl)no1` (centres unmarked) [Example 48, 5-tert-butyl-N-[[2-chloro-4-[6-[4-[[4-[4-[(2,6-dioxo-3-piperidyl)amino]phenyl]-1-piperidyl]methyl]phenyl]pyrrolo[2,1-f][1,2,4]triazin-4-yl]phenyl]methyl]-1,2,4-oxadiazole-3-carboxamide] was tested. Which DC50 did it give?
A: < 100 nM

Q: Which DC50 does the source give for `CC(C)(C)c1nc(C(=O)NCc2cc(F)c(-c3ncnn4cc(-c5ccc(CN6CCC(c7ccc(NC8CCC(=O)NC8=O)cc7)CC6)cc5)cc34)cc2Cl)no1` (centres unmarked) [Example 49, 5-tert-butyl-N-[[2-chloro-4-[6-[4-[[4-[4-[(2,6-dioxo-3-piperidyl)amino]phenyl]-1-piperidyl]methyl]phenyl]pyrrolo[2,1-f][1,2,4]triazin-4-yl]-5-fluoro-phenyl]methyl]-1,2,4-oxadiazole-3-carboxamide] here?
A: < 100 nM

Q: `Cc1cc(-c2ncnn3cc(-c4cccc(CN5CCC(c6ccc(NC7CCC(=O)NC7=O)cc6)CC5)c4)cc23)ccc1CNC(=O)c1noc(C(C)(C)C)n1` (centres unmarked) [Example 50, 5-tert-butyl-N-[[4-[6-[3-[[4-[4-[(2,6-dioxo-3-piperidyl)amino]phenyl]-1-piperidyl]methyl]phenyl]pyrrolo[2,1-f][1,2,4]triazin-4-yl]-2-methyl-phenyl]methyl]-1,2,4-oxadiazole-3-carboxamide] was tested. Which DC50 did it give?
A: < 100 nM

Q: With `Cc1cc(-c2ncnn3cc(-c4ccc(CCN5CCC(c6ccc(C7CCC(=O)NC7=O)cc6)C(F)(F)C5)cc4)cc23)ccc1CNC(=O)c1noc(C(C)(C)C)n1` (centres unmarked) [Example 51, 5-tert-butyl-N-[[4-[6-[4-[2-[4-[4-(2,6-dioxo-3-piperidyl)phenyl]-3,3-difluoro-1-piperidyl]ethyl]phenyl]pyrrolo[2,1-f][1,2,4]triazin-4-yl]-2-methyl-phenyl]methyl]-1,2,4-oxadiazole-3-carboxamide] as the compound, how does the DC50 read?
A: < 100 nM

Q: Which DC50 does the source give for `Cc1cc(-c2ncnn3cc(-c4ccc(CCN5CCC(c6ccc(C7CCC(=O)NC7=O)cc6)CC5)cc4)cc23)ccc1CNC(=O)c1noc(C(C)(C)C)n1` (centres unmarked) [Example 52, 5-tert-butyl-N-[[4-[6-[4-[2-[4-[4-(2,6-dioxo-3-piperidyl)phenyl]-1-piperidyl]ethyl]phenyl]pyrrolo[2,1-f][1,2,4]triazin-4-yl]-2-methyl-phenyl]methyl]-1,2,4-oxadiazole-3-carboxamide] here?
A: < 100 nM

Q: With `Cc1cc(-c2ncnn3cc(-c4ccc(CCN5CCC(c6ccc(NC7CCC(=O)NC7=O)cc6)CC5)cc4)cc23)ccc1CNC(=O)c1noc(C(C)(C)C)n1` (centres unmarked) [Example 53, 5-tert-butyl-N-[[4-[6-[4-[2-[4-[4-[(2,6-dioxo-3-piperidyl)amino]phenyl]-1-piperidyl]ethyl]phenyl]pyrrolo[2,1-f][1,2,4]triazin-4-yl]-2-methyl-phenyl]methyl]-1,2,4-oxadiazole-3-carboxamide] as the compound, how does the DC50 read?
A: < 100 nM

Q: How did the DC50 turn out when `Cc1cc(-c2ncnn3cc(-c4cccc(CCN5CCC(c6ccc(NC7CCC(=O)NC7=O)cc6)CC5)c4)cc23)ccc1CNC(=O)c1noc(C(C)(C)C)n1` (centres unmarked) [Example 54, 5-tert-butyl-N-[[4-[6-[3-[2-[4-[4-[(2,6-dioxo-3-piperidyl)amino]phenyl]-1-piperidyl]ethyl]phenyl]pyrrolo[2,1-f][1,2,4]triazin-4-yl]-2-methyl-phenyl]methyl]-1,2,4-oxadiazole-3-carboxamide] was run?
A: < 100 nM

Q: For `Cc1cc(-c2ncnn3cc(-c4ccc5c(c4)CN(CCc4ccc(NC6CCC(=O)NC6=O)cc4)C5)cc23)ccc1CNC(=O)c1noc(C(C)(C)C)n1` (centres unmarked) [Example 55, 5-tert-butyl-N-[[4-[6-[2-[2-[4-[(2,6-dioxo-3-piperidyl)amino]phenyl]ethyl]isoindolin-5-yl]pyrrolo[2,1-f][1,2,4]triazin-4-yl]-2-methyl-phenyl]methyl]-1,2,4-oxadiazole-3-carboxamide], which DC50 is on record?
A: < 100 nM

Q: How did the DC50 turn out when `Cc1cc(-c2ncnn3cc(-c4ccc5c(c4)CCN(CCc4ccc(NC6CCC(=O)NC6=O)cc4)C5)cc23)ccc1CNC(=O)c1noc(C(C)(C)C)n1` (centres unmarked) [Example 56, 5-tert-butyl-N-[[4-[6-[2-[2-[4-[(2,6-dioxo-3-piperidyl)amino]phenyl]ethyl]-3,4-dihydro-1H-isoquinolin-6-yl]pyrrolo[2,1-f][1,2,4]triazin-4-yl]-2-methyl-phenyl]methyl]-1,2,4-oxadiazole-3-carboxamide] was run?
A: < 100 nM

Q: How did the DC50 turn out when `Cc1cc(-c2ncnn3cc(-c4ccc5c(c4)CN(CCCc4ccc(NC6CCC(=O)NC6=O)cc4)C5)cc23)ccc1CNC(=O)c1noc(C(C)(C)C)n1` (centres unmarked) [Example 57, 5-tert-butyl-N-[[4-[6-[2-[3-[4-[(2,6-dioxo-3-piperidyl)amino]phenyl]propyl]isoindolin-5-yl]pyrrolo[2,1-f][1,2,4]triazin-4-yl]-2-methyl-phenyl]methyl]-1,2,4-oxadiazole-3-carboxamide] was run?
A: < 100 nM
